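Protocol summary: plate cells (96-well), add compound at 5 concentrations, incubate 48 h, interpolate endpoints linearly. TGI marks complete inhibition of growth.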
Legend:
Assay in all cases: NCI tumour cell line growth inhibition, 48 h
HL-60(TB) leukemia = system: HL-60(TB) leukemia
DLD-1 colon = system: DLD-1 colon
OVCAR-8 ovarian = system: OVCAR-8 ovarian
HCT-15 colon = system: HCT-15 colon
IGROV1 ovarian = system: IGROV1 ovarian
SW-620 colon = system: SW-620 colon
HT29 colon = system: HT29 colon
OVCAR-4 ovarian = system: OVCAR-4 ovarian
NCI-H23 lung = system: NCI-H23 lung
A498 renal = system: A498 renal
SK-MEL-28 melanoma = system: SK-MEL-28 melanoma
SF-295 CNS = system: SF-295 CNS
NCI-H460 lung = system: NCI-H460 lung
MALME-3M melanoma = system: MALME-3M melanoma
SN12K1 renal = system: SN12K1 renal
SN12C renal = system: SN12C renal
SF-268 CNS = system: SF-268 CNS
P388/ADR leukemia = system: P388/ADR leukemia
K-562 leukemia = system: K-562 leukemia
UO-31 renal = system: UO-31 renal
HOP-92 NSCLC = system: HOP-92 NSCLC
SK-OV-3 ovarian = system: SK-OV-3 ovarian
SNB-19 CNS = system: SNB-19 CNS
SNB-78 CNS = system: SNB-78 CNS
RPMI-8226 leukemia = system: RPMI-8226 leukemia
CAKI-1 renal = system: CAKI-1 renal
U251 CNS = system: U251 CNS
SK-MEL-2 melanoma = system: SK-MEL-2 melanoma
M19-MEL melanoma = system: M19-MEL melanoma
KM12 colon = system: KM12 colon
HOP-18 NSCLC = system: HOP-18 NSCLC
OVCAR-5 ovarian = system: OVCAR-5 ovarian
NCI-H522 lung = system: NCI-H522 lung
MOLT-4 leukemia = system: MOLT-4 leukemia
COLO 205 colon = system: COLO 205 colon
UACC-62 melanoma = system: UACC-62 melanoma
MCF7 breast = system: MCF7 breast
NCI/ADR-RES ovarian = system: NCI/ADR-RES ovarian
UACC-257 melanoma = system: UACC-257 melanoma
HOP-62 NSCLC = system: HOP-62 NSCLC
SK-MEL-5 melanoma = system: SK-MEL-5 melanoma
LOX IMVI melanoma = system: LOX IMVI melanoma
NCI-H226 lung = system: NCI-H226 lung
SF-539 CNS = system: SF-539 CNS
HCC-2998 colon = system: HCC-2998 colon
CCRF-CEM leukemia = system: CCRF-CEM leukemia
A549 NSCLC = system: A549 NSCLC
SNB-75 CNS = system: SNB-75 CNS
P388 leukemia = system: P388 leukemia
KM20L2 colon = system: KM20L2 colon
DMS 273 small cell lung = system: DMS 273 small cell lung
DMS 114 small cell lung = system: DMS 114 small cell lung
786-0 renal = system: 786-0 renal
EKVX NSCLC = system: EKVX NSCLC
ACHN renal = system: ACHN renal
RXF-631 renal = system: RXF-631 renal
OVCAR-3 ovarian = system: OVCAR-3 ovarian
HCT-116 colon = system: HCT-116 colon
RXF 393 renal = system: RXF 393 renal
TK-10 renal = system: TK-10 renal
M14 melanoma = system: M14 melanoma

Cc1n(CC(C)C)c2c([n+]1CC(=O)c1ccc([N+](=O)[O-])cc1)C(=O)c1ccccc1C2=O
TGI (HL-60(TB) leukemia): < 0.01 µM
TGI (DLD-1 colon): 0.797 µM
TGI (OVCAR-8 ovarian): 0.476 µM
TGI (HCT-15 colon): 15.6 µM
TGI (IGROV1 ovarian): 0.0102 µM
TGI (SW-620 colon): < 0.036 µM
TGI (HT29 colon): 0.55 µM
TGI (OVCAR-4 ovarian): 0.055 µM
TGI (NCI-H23 lung): < 0.0142 µM
TGI (A498 renal): 2.21 µM
TGI (SK-MEL-28 melanoma): 0.902 µM
TGI (SF-295 CNS): 1.51 µM
TGI (NCI-H460 lung): 1.38 µM
TGI (MALME-3M melanoma): < 0.0205 µM
TGI (SN12K1 renal): 0.279 µM
TGI (SN12C renal): 0.0107 µM
TGI (SF-268 CNS): < 0.0391 µM
TGI (P388/ADR leukemia): 61.3 µM
TGI (K-562 leukemia): 1.33 µM
TGI (UO-31 renal): 30.2 µM
TGI (HOP-92 NSCLC): 0.128 µM
TGI (SK-OV-3 ovarian): 0.869 µM
TGI (SNB-19 CNS): 0.104 µM
TGI (SNB-78 CNS): 0.107 µM
TGI (RPMI-8226 leukemia): 0.757 µM
TGI (CAKI-1 renal): 1.13 µM
TGI (U251 CNS): 0.034 µM
TGI (SK-MEL-2 melanoma): 0.0837 µM
TGI (M19-MEL melanoma): < 0.0175 µM
TGI (KM12 colon): 0.386 µM
TGI (HOP-18 NSCLC): 0.202 µM
TGI (OVCAR-5 ovarian): 0.0698 µM
TGI (NCI-H522 lung): < 0.01 µM
TGI (MOLT-4 leukemia): 0.0742 µM
TGI (COLO 205 colon): < 0.01 µM
TGI (UACC-62 melanoma): 0.104 µM
TGI (MCF7 breast): < 0.01 µM
TGI (NCI/ADR-RES ovarian): 2.91 µM
TGI (UACC-257 melanoma): 0.0293 µM
TGI (HOP-62 NSCLC): 1.15 µM
TGI (SK-MEL-5 melanoma): < 0.0309 µM
TGI (LOX IMVI melanoma): 0.131 µM
TGI (NCI-H226 lung): 0.0523 µM
TGI (SF-539 CNS): < 0.0387 µM
TGI (HCC-2998 colon): 1.18 µM
TGI (CCRF-CEM leukemia): 4.94 µM
TGI (A549 NSCLC): 0.933 µM
TGI (SNB-75 CNS): 0.641 µM
TGI (P388 leukemia): 0.563 µM
TGI (KM20L2 colon): 0.113 µM
TGI (DMS 273 small cell lung): 0.161 µM

CCOC1=C2C(C)(CCC3[C@@]4(C)C=CC(=O)C(C)(C)C4CC(O)[C@@]23C)C(c2ccoc2)C1=O (stereo not given in full)
TGI (HL-60(TB) leukemia): 36.3 µM
TGI (DLD-1 colon): 29.7 µM
TGI (OVCAR-8 ovarian): 44.3 µM
TGI (HCT-15 colon): 27.5 µM
TGI (IGROV1 ovarian): > 100 µM
TGI (DMS 114 small cell lung): 36.8 µM
TGI (786-0 renal): 39.8 µM
TGI (EKVX NSCLC): 67.7 µM
TGI (SW-620 colon): 46.2 µM
TGI (HT29 colon): 29.2 µM
TGI (OVCAR-4 ovarian): > 100 µM
TGI (NCI-H23 lung): 34.8 µM
TGI (A498 renal): 33.9 µM
TGI (SK-MEL-28 melanoma): 30.5 µM
TGI (SF-295 CNS): 46.5 µM
TGI (ACHN renal): 37.4 µM
TGI (NCI-H460 lung): 28.4 µM
TGI (SN12C renal): 58 µM
TGI (SF-268 CNS): > 100 µM
TGI (RXF-631 renal): 70.5 µM
TGI (K-562 leukemia): 50.2 µM
TGI (UO-31 renal): 29.1 µM
TGI (HOP-92 NSCLC): 41.9 µM
TGI (SK-OV-3 ovarian): 76.8 µM
TGI (SNB-19 CNS): > 100 µM
TGI (SNB-78 CNS): > 100 µM
TGI (RPMI-8226 leukemia): 49.8 µM
TGI (CAKI-1 renal): > 100 µM
TGI (U251 CNS): 34.8 µM
TGI (SK-MEL-2 melanoma): 43.4 µM
TGI (OVCAR-3 ovarian): 33.4 µM
TGI (M19-MEL melanoma): 44.1 µM
TGI (KM12 colon): 46.6 µM
TGI (HOP-18 NSCLC): > 100 µM
TGI (OVCAR-5 ovarian): 36 µM
TGI (HCT-116 colon): 23.7 µM
TGI (MOLT-4 leukemia): 40.4 µM
TGI (RXF 393 renal): 34 µM
TGI (COLO 205 colon): 29.3 µM
TGI (UACC-62 melanoma): 57.7 µM
TGI (UACC-257 melanoma): 99.3 µM
TGI (HOP-62 NSCLC): 36.8 µM
TGI (SK-MEL-5 melanoma): 29.5 µM
TGI (LOX IMVI melanoma): 29.1 µM
TGI (NCI-H226 lung): 55.4 µM
TGI (SF-539 CNS): 41.7 µM
TGI (HCC-2998 colon): 31.1 µM
TGI (CCRF-CEM leukemia): 38.9 µM
TGI (A549 NSCLC): 98.6 µM
TGI (SNB-75 CNS): > 100 µM
TGI (KM20L2 colon): 32 µM
TGI (TK-10 renal): 61.3 µM
TGI (DMS 273 small cell lung): > 100 µM
TGI (M14 melanoma): > 100 µM
